# Test results taken from patent US20060016765A1, “Water treatment” (priority 2004, published 2006).
# Where “and” joins values, the source holds several entries; their conditions need not be identical. Equal entries are not always repeated. Where two headings read alike, the source gives them in different places.
# Columns and labels:
# Type in all cases: cell-based
# [1] = tested on: Aspergillus fumigatus ATCC 1098; test: Fungicidal activity, modified AOAC Method 955.17, spore kill; settings: for reduction of the fungal bioburden: solutions equivalent to amounts found in the tablet solution
# Description: This assay had several modifications from the published AOAC Fungicidal Activity of Disinfectants Protocol, Method 955.17. Aspergillus fumigatus ATCC 1098 was grown on Malt Extract Agar (available from Becton Dickinson, Billerica, Mass.) plates, and spores were harvested. Spores were stored in filter-sterilized Millipore water at −20° C. The spore preparation used for this experiment is detailed below. A freezer stock of A. fumigatus was defrosted and diluted to obtain an inoculum suspension for this experiment. […] The following test solutions were prepared using filter-sterilized MILLIPORE water in steam-sterilized 4 L bottles:
# Water Control: (filter-sterilized water only), pH 6.28.
# OXONE Control: 3.78 g OXONE in 1 gallon (about 3.8 liters) sterile water, buffered to pH 4.43 using 0.98 g NaHCO3 and 5.25 g 10% H2SO4.
# Chlorite Control: 0.26 g of sodium chlorite in 1-gallon sterile water buffered to pH 4.55 (1.8 g 10% H2SO4).
# Buffer Control: sodium bicarbonate, pH adjusted to 4.4.
# Chlorine Dioxide: Anthium Dioxide (stabilized sodium chlorite available from IDI, North Kingston, R1) was acidified with HCl.
# CLOROX control: 4.17% (v/v) CLOROX bleach available from Clorox Company, Oakland, Calif. (v/v) in MILLIPORE water by mixing 4.17 ml of Clorox bleach and water up to 100 ml total volume.
# Reaction tubes: 5 ml of each test solution was aliquoted into 25×150 mm test culture tubes, capped and labeled according to Table 6. 9 ml of D/E (Dey/Engley) Neutralizing Broth (available from Becton Dickinson, Billerica, Mass.) was added to each of 28 test tubes and the tubes were capped. Butterfield buffer blanks were arranged for dilution of neutralized samples, and Malt Extract Agar plates were numbered for spore enumerations of the diluted, neutralized samples. With a graduated pipette, 0.5 ml of spore inoculum (about […]) was added to the first tube of test solution and gently shaken. After 5- and 15-minute exposures to the respective test solutions, samples were gently shaken and 1 ml samples were removed from each reaction mixture (spore-test solution) using an Eppendorf pipette and placed in 9 ml D/E (Dey/Engley) Neutralizing Broth. The inoculum was further diluted to approximately 10^4 condia/ml. Two more reaction tubes (water and OXONE-chlorite) and four Dey/Engley neutralization tubes were prepared to evaluate the efficacy of the tablet solution versus a final inoculum density of 10^4 condia/ml in the reaction tube. Samples were reacted for 15 minutes only. Dilutions of neutralized samples were prepared. Two 100 μl aliquots of all samples in D/E (Dey/Engley) Neutralizing Broth were plated on Malt Extract Agar and incubated at 25° C. until the appearance of colonies. Plates were counted after colonies appeared, roughly 4 days after incubation. Several dilutions of the inoculum spore suspensions were also plated on Malt Extract Agar to obtain an accurate count of viable spores used as inoculum. The samples were incubated at 25° C. and counted after the appearance of colonies, after about 4 days of incubation.
# Buffer control data was taken after 15 minutes. CLOROX control data was taken after 5 minutes of treatment.
# [2] = tested on: Staphylococcus aureus ATCC 6538; test: Microbial efficacy, modified AOAC 965.13, serial-dilution plate count
# [3] = tested on: Salmonella choleraesuis ATCC 10708
# [4] = tested on: Pseudomonas aeruginosa ATCC 15442; test: Microbial efficacy, modified AOAC 965.13, serial-dilution plate count
# [5] = 30 sec exposure, Example 11 = 1,008 ppm Oxone + 55.5 ppm Chlorite, controls 1,008 ppm Oxone, 55.5 ppm Chlorite, 23.2 ppm ClO2
# [6] = 30 sec exposure, Example 11 = 1,008 ppm Oxone + 55.5 ppm Chlorite, controls 1,008 ppm Oxone, 55.5 ppm Chlorite, 23.2 ppm ClO2, low level of detection 1.0E+01 CFU/mL
# [7] = 10 min exposure, Example 11 = 1,008 ppm Oxone + 55.5 ppm Chlorite, controls 1,008 ppm Oxone, 55.5 ppm Chlorite, 23.2 ppm ClO2
# [8] = 10 min exposure, Example 11 = 1,008 ppm Oxone + 55.5 ppm Chlorite, controls 1,008 ppm Oxone, 55.5 ppm Chlorite, 23.2 ppm ClO2, low level of detection 1.0E+01 CFU/mL
Compound,CFU/ml [3],"Surviving Bioburden Counts (germinating spores, conidia/ml) ([1]; 5 min, 2 replicates average) [E + 05 conidia/ml]","Surviving Bioburden Counts (germinating spores, conidia/ml) ([1]; 15 min, 2 replicates average) [E + 05 conidia/ml]",reduction of the fungal bioburden [1],reduction of the bioburden within 15 minutes of treatment [1],"Δt (log difference test and control densities) [2, 5] [log]","CFU/ml [2, 6] [E + 06 CFU/ml]","Δt (log difference test and control densities) [2, 7] [log]","CFU/ml [2, 8]","Δt (log difference test and control densities) [4, 5] [log]","CFU/ml [4, 6]","Δt (log difference test and control densities) [4, 7] [log]","CFU/ml [4, 8]",other results
"[O][Cl+][O-] [ClO2 control, chlorine dioxide]",1.00E + 01 CFU/ml,,,,,,,,,,,,,"Surviving Bioburden Counts (germinating spores, conidia/ml) [1]: 0.00E + 00 conidia/ml; kill of A. fumigatus spores within 5 minutes [1]: 5 log; CFU/ml [2]: 1.00E + 01 CFU/ml; Δt (log difference test and control densities) [2]: 5.1 log and 5.2 log; Δt (log difference test and control densities) [3]: 5.1 log and 5.3 log; CFU/ml [4]: 1.00E + 01 CFU/ml; Δt (log difference test and control densities) [4]: 5 log and 5.0 log and 5.1 log"
sodium chlorite [Chlorite control],,4.25,6.25,ineffective in reducing the fungal bioburden,not able to reduce the bioburden,0.0,1.23,0.1,1.20E + 06 CFU/ml,−0.1,1.17E + 06 CFU/ml,0.0,1.21E + 06 CFU/ml,"Δt (log difference test and control densities) [3, 5]: −0.3 log; CFU/ml [3, 6]: 3.09E + 06 CFU/ml; Δt (log difference test and control densities) [3, 7]: 0.2 log; CFU/ml [3, 8]: 1.27E + 06 CFU/ml"
"triple salt of potassium monopersulfate, potassium hydrogen sulfate and potassium sulfate [Oxone control]",2.95E + 03 CFU/ml and 2.14E + 06 CFU/ml,3.45,5.70,ineffective in reducing the fungal bioburden,not able to reduce the bioburden,0.0,1.52,0.4,6.15E + 05 CFU/ml,0.0,9.50E + 05 CFU/ml,5.1,1.00E + 01 CFU/ml,
